≈ marks a conversion by molar mass, not a printed value.

This assay deals with Bulinus africanus. The assay is described as follows: Molluscicidal activity against Bulinus africanus. The class given is functional. The following applies: for LC50: Bulinus africanus, read-out: LD50 (the source's name).

`COC(=O)C1=CO[C@@H](O)[C@@H]2C(COC(C)=O)=CC[C@H]12`: the LD90 worked out at 39.4 ppm and the LC50 was 21.7 µg/mL (≈ 81 µM).
Taken in the same sequence, the figures for `COC(=O)C1=CO[C@@H](O)[C@@H]2C(CO)=CC[C@H]12` [GENIPIN] were 32.57 ppm and 25.3 µg/mL (≈ 112 µM).

The record behind these values is ChEMBL document CHEMBL1158282, “Iridoid Molluscicidal Compounds from Apodytes dimidiata” (1996).
